IC50 data for 47 compounds are collected here from patent US20220298138A1, “ENZYME INHIBITORS” (KALVISTA PHARMACEUTICALS LIMITED, priority 2019, published 2022).

The structures appear in SMILES notation.

One assay deals with T1, Human FXIa (Homo sapiens, UniProt P03951).
T1 construct: Human FXIa (Enzyme Research Laboratories) was incubated; purchased Enzyme Research Laboratories
Briefly: FXIa inhibitory activity in vitro (fluorogenic substrate Z-Gly-Pro-Arg-AFC), selectivity. The format is biochemical. The following applies: category scale, 25° C. On the procedure: Determination of the % Inhibition for FXIa
Human FXIa (Enzyme Research Laboratories) was incubated at 25° C. with the fluorogenic substrate Z-Gly-Pro-Arg-AFC and various concentrations of the test compound. Residual enzyme activity (initial rate of reaction) was determined by measuring the change in fluorescence at 410 nm and the IC50 value for the test compound was determined.

In another assay the target is T2, Human Factor XIIa (Homo sapiens, UniProt P00748).
T2 construct: purchased Enzyme Research Laboratories
T2 sequence (P00748 373-615 limits assumed): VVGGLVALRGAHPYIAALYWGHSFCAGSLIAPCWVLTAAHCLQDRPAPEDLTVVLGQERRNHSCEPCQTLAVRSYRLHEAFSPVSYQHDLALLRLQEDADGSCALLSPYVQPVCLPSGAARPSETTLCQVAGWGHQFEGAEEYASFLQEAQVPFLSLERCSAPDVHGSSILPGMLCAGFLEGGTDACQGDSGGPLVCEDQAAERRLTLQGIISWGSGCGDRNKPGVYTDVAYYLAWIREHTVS
In words: Factor XIIa inhibitory activity in vitro (fluorogenic substrate H-DPro-Phe-Arg-AFC). The format is biochemical. The following applies: 25° C., class symbols, read-out: Human FXIIa IC50. An outline of the steps:
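Enzyme incubated at 25° C with fluorogenic substrate H-DPro-Phe-Arg-AFC and a range of compound concentrations. Residual activity taken as initial reaction rate from […], giving IC50.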

In general, IC50 refers to the midpoint of a concentration-inhibition curve.

T1 sequence (P03951 388-625 limits assumed): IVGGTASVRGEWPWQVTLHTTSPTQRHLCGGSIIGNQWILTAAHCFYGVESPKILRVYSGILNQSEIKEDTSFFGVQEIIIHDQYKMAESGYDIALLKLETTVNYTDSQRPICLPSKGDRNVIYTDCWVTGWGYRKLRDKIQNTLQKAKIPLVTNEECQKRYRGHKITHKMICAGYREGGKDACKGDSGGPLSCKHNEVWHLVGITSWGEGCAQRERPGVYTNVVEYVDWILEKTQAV
T1 sequence (P03951 19-387 partner limits assumed): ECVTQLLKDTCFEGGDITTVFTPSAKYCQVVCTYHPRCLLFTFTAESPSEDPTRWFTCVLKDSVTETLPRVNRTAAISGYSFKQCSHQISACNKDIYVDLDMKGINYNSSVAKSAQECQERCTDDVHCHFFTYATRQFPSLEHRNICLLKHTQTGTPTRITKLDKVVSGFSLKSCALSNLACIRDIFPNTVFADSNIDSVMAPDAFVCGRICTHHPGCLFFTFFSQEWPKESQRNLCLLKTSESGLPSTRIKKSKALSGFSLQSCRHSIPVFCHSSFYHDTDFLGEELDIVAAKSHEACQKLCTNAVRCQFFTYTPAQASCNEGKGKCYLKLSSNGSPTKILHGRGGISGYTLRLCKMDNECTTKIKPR

For the compound `C[C@H](NC(=O)[C@H](N)CCCCN1CCCCC1)C(=O)NCc1ccc2c(N)nccc2c1` [Example 6.14], the IC50 was 10 to 40 µM at Human FXIa and 1 to 3 µM at Human Factor XIIa.
The matching figures for `CC(C)N[C@H](CCc1ccccc1)C(=O)N[C@@H](C)C(=O)NCc1cc2c(N)nccc2s1` [Example 9.27, (2R)—N-[(1S)-1-[({4-Aminothieno[3,2-c]pyridin-2-yl}methyl)carbamoyl]ethyl]-2-(isopropylamino)-4-phenylbutanamide]: above 40 µM and 0.03 to 0.1 µM.
The matching figures for `CC(C)N[C@H](CCc1ccccc1)C(=O)N[C@@H](C)C(=O)NCc1cc2c(N)nccc2o1` [Example 9.24]: above 40 µM and 0.1 to 0.279 µM.
The matching figures for `COc1ccc(C[C@H](NC(=O)[C@@H](CCCCN2CCCCC2)NC(C)C)C(=O)NCc2ccc3c(N)nccc3c2)cc1` [Example 12.09]: above 40 µM and 1 to 3 µM.
Turning to `Nc1nccc2cc(CNC(=O)CNC(=O)C(CCc3ccccc3)N3CCNCC3)ccc12` (stereo not drawn) [Example 18.109], the IC50 against Human FXIa is above 40 µM; at Human Factor XIIa, 10 to 40 µM.
The matching figures for `CC(C)N[C@H](CCCCN1CCCCC1)C(=O)N[C@@H](Cc1ccc2ccccc2c1)C(=O)NCc1ccc2c(N)nccc2c1` [Example 12.08]: 10 to 40 µM and 1 to 3 µM.
The matching figures for `C[C@@H]1CCC[C@H](C)N1CC(=O)NC1(C(=O)NCc2ccc3c(N)nccc3c2)CCC1` [Example 39.10]: 10 to 40 µM and 3 to 10 µM.
The matching figures for `C[C@H](NC(=O)[C@H](N)CCc1ccccc1)C(=O)NCc1cc2c(N)nccc2s1` [Example 9.07, (2R)—N-[(1S)-1-[({4-Aminothieno[3,2-c]pyridin-2-yl}methyl)carbamoyl]ethyl]-2-amino-4-phenylbutanamide]: above 40 µM and 0.1 to 0.279 µM.
Regarding `C[C@@H]1CCC[C@H](C)N1CC(=O)N1CC[C@H]1C(=O)NCc1ccc2c(N)nccc2c1` [Example 32.11], the IC50 at Human FXIa fell in the range of 10 to 40 µM; at Human Factor XIIa, 3 to 10 µM.
Turning to `Nc1nccc2cc(CNC(=O)[C@H]3CCC[C@@H]3NC(=O)[C@H](N)CCc3ccccc3)ccc12` [Example 17.07], the figures for the IC50 on Human FXIa and on Human Factor XIIa were 3 to 10 µM and 10 to 40 µM, respectively.
The matching figures for `CC(C)c1cc(C(=O)N[C@@H](Cc2ccc(F)c(F)c2)C(=O)NCc2ccc3c(N)nccc3c2)nc2ncnn12` [Example 0.64, (S)—N-(1-(((1-Aminoisoquinolin-6-yl)methyl)amino)-3-(3,4-difluorophenyl)-1-oxopropan-2-yl)-7-isopropyl-[1,2,4]triazolo[1,5-a]pyrimidine-5-carboxamide]: above 40 µM and 0.28 to 1 µM.
The matching figures for `Nc1nccc2cc(CNC(=O)CNC(=O)c3ccc4ccccc4n3)ccc12` [Example 18.107]: above 40 µM and 10 to 40 µM.
The matching figures for `CC(C)N[C@H](CCCCN1CCCCC1)C(=O)N[C@@H](Cc1ccc(F)c(F)c1)C(=O)NCc1ccc2[nH]cc(Cl)c2c1` [Example 27.03]: 10 to 40 µM and below 0.03 µM.
Turning to `C[C@@H]1CCC[C@H](C)N1CC(=O)N1CC(C(=O)NCc2ccc3c(N)nccc3c2)C1` [Example 32.12], the IC50 against Human FXIa was above 40 µM; on Human Factor XIIa it was 10 to 40 µM.
As for `CC(C)N[C@H](CCCN1CCCCC1)C(=O)N[C@@H](Cc1ccc(F)c(F)c1)C(=O)NCc1ccc2c(N)nccc2c1` [Example 12.04], the results for the IC50 against Human FXIa and at Human Factor XIIa were 10 to 40 µM and 0.28 to 1 µM, respectively.
For `CC(C)c1cncc(C(=O)N[C@@H](Cc2ccc(F)c(F)c2)C(=O)NCc2ccc3c(N)nccc3c2)n1` [Example 0.98], the IC50 against Human FXIa was above 40 µM; on Human Factor XIIa, 10 to 40 µM.
As for `C[C@H](NC(=O)[C@@H](CCc1ccccc1)NC1CCCCC1)C(=O)NCc1ccc2c(N)nccc2c1` [Example 6.19], the IC50 lay within 0.3 to 1 µM at Human FXIa and 0.03 to 0.1 µM on Human Factor XIIa.
The matching figures for `C[C@@H](C(=O)NCc1ccc2c(N)nccc2c1)N(C)C(=O)[C@H](N)CCc1ccccc1` [Example 65.02]: above 40 µM and 1 to 3 µM.
The matching figures for `N[C@H](CCCCN1CCc2ccccc21)C(=O)N1CC[C@H]1C(=O)NCc1ccc2[nH]cc(Cl)c2c1` [Example 10.14]: above 40 µM and 10 to 40 µM.
The matching figures for `C[C@H](NC(=O)[C@@H](CCc1ccccc1)NC(=O)OC(C)(C)C)C(=O)NCc1ccc2c(N)nccc2c1` [Example 6.25]: 10 to 40 µM and 3 to 10 µM.
For the compound `C[C@H](NC(=O)[C@H](N)CCc1ccccc1)C(=O)NCc1ccc2c(N)nccc2c1` [Example 6.09], the IC50 against Human FXIa lay within 10 to 40 µM; on Human Factor XIIa, 0.1 to 0.279 µM.
The matching figures for `N[C@H](CCCCN1Cc2ccccc2C1)C(=O)N1CC[C@H]1C(=O)NCc1ccc2[nH]cc(Cl)c2c1` [Example 10.10]: above 40 µM and 1 to 3 µM.
For the compound `CC(C)N[C@H](CCCCN1CCCCC1)C(=O)N[C@@H](Cc1ccc(F)c(F)c1)C(=O)NCc1cnc2[nH]cc(Cl)c2c1` [Example 27.04], the IC50 is above 40 µM at Human FXIa and 0.03 to 0.1 µM on Human Factor XIIa.
`CC(C)N[C@H](CCc1ccccc1)C(=O)N[C@@H](C)C(=O)NCc1ccc2[nH]cc(Cl)c2c1` [Example 9.08]: the IC50 at Human FXIa lay within 10 to 40 µM; at Human Factor XIIa, 1 to 3 µM.
The matching figures for `Nc1nccc2cc(CNC(=O)[C@H](Cc3ccc(F)c(F)c3)NC(=O)CCCCCN3CCCCC3)ccc12` [Example 12.11]: above 40 µM and 0.28 to 1 µM.
The matching figures for `C[C@@H]1CCC[C@H](C)N1CC(=O)N1CC2CC(C(=O)NCc3ccc4c(N)nccc4c3)C1C2` (stereo partly drawn) [Example 32.14]: above 40 µM and 10 to 40 µM.
The matching figures for `C[C@H](NC(=O)[C@H](O)CCc1ccccc1)C(=O)NCc1ccc2c(N)nccc2c1` [Example 6.24]: 10 to 40 µM and 10 to 40 µM.
Turning to `CC(C)N[C@H](CCCCN1CCCCC1)C(=O)N1C[C@@H](c2ccc(F)c(F)c2)[C@H]1C(=O)NCc1ccc2[nH]cc(Cl)c2c1` [Example 10.07], the half-inhibitory concentration (IC50) at Human FXIa was above 40 µM; on Human Factor XIIa, 0.28 to 1 µM.
The matching figures for `CC(C)n1ccc(C(=O)N[C@@H](Cc2ccc(F)c(F)c2)C(=O)NCc2ccc3c(N)nccc3c2)cc1=O` [Example 0.96]: above 40 µM and 3 to 10 µM.
The matching figures for `N[C@H](CCCCN1CCOCC1)C(=O)N1CC[C@H]1C(=O)NCc1cnc2[nH]cc(Cl)c2c1` [Example 10.03]: above 40 µM and 0.28 to 1 µM.
The matching figures for `Nc1nccc2cc(CNC(=O)CNC(=O)c3ccc(-c4ccncc4)cc3)ccc12` [Example 18.108]: above 40 µM and 10 to 40 µM.
In the case of `C[C@@H]1CCC[C@H](C)N1CC(=O)N1CCC[C@H]1C(=O)NCc1ccc2c(N)nccc2c1` [Example 32.02], at Human Factor XIIa, the IC50 was 10 to 40 µM.
Still for that read-out and setting: for `Cn1ccc(C(=O)N[C@@H](Cc2ccc(F)c(F)c2)C(=O)NCc2ccc3c(N)nccc3c2)n1` [Example 0.17] the value was 10 to 40 µM.
Still for that read-out and setting: the same measure for `CC(C)N[C@H](CCc1ccccc1)C(=O)N[C@@H](C)C(=O)NCCc1ccnc(N)c1` [Example 9.12]: 10 to 40 µM; for `CC(C)N1CCC[C@@H]1C(=O)N[C@@H](Cc1ccc(F)c(F)c1)C(=O)NCc1cnc2[nH]ccc2c1` [Example 44.04]: 10 to 40 µM; for `Nc1nccc2cc(CNC(=O)[C@H](Cc3ccc(F)c(F)c3)NC(=O)c3ccsc3)ccc12` [Example 0.77]: 10 to 40 µM.
On the same count and under the same terms, the same measure for `Nc1nccc2cc(CNC(=O)[C@H](Cc3ccc(F)c(F)c3)NC(=O)c3nc4ccccc4[nH]c3=O)ccc12` [Example 0.74]: 10 to 40 µM.
Take `Nc1nccc2cc(CNC(=O)[C@H](Cc3ccc(F)c(F)c3)NC(=O)c3cc(F)cc(F)c3)ccc12` [Example 0.73]: the IC50 on Human Factor XIIa lay within 10 to 40 µM.
On the same count and under the same terms, for `Nc1nccc2cc(CNC(=O)C[C@@H](N)Cc3ccccc3)ccc12` [Example 24.03] the value was 10 to 40 µM; for `Cn1cc(C(=O)N[C@@H](Cc2ccc(F)c(F)c2)C(=O)NCc2ccc3c(N)nccc3c2)ccc1=O` [Example 0.52], 3 to 10 µM; for `CC(C)N1CCC[C@@H]1C(=O)N[C@@H](Cc1ccc(F)c(F)c1)C(=O)NCc1cccc2[nH]ccc12` [Example 44.03], 10 to 40 µM.
Take `N#Cc1ccc(CS(=O)(=O)N[C@@H](Cc2ccc(F)c(F)c2)C(=O)NCc2ccc3c(N)nccc3c2)cc1` [Example 55.04]: the IC50 at Human Factor XIIa was in the range of 10 to 40 µM.
Consider `Nc1nccc2cc(CNC(=O)[C@H](Cc3ccc(F)c(F)c3)NC(=O)COCc3ccccc3)ccc12` [Example 0.39], for which the IC50 on Human Factor XIIa lay in the range of 10 to 40 µM.
On the same count and under the same terms, for `C[C@@H]1CCC[C@H](C)N1[C@@H](C)C(=O)N[C@@H](Cc1ccc(F)c(F)c1)C(=O)NCc1ccc2c(N)nccc2c1` [Example 5.106] the value was 3 to 10 µM.
Still for that read-out and setting: for `Nc1nccc2cc(CNC(=O)[C@H](Cc3ccc(F)c(F)c3)NC(=O)CCS(=O)(=O)c3ccccc3)ccc12` [Example 0.41] the value was 3 to 10 µM; for `CCCc1cc(C(=O)N[C@@H](Cc2ccc(F)c(F)c2)C(=O)NCc2ccc3c(N)nccc3c2)nn1C` [Example 0.79], 3 to 10 µM.
On the same count and under the same terms, the same measure for `Nc1nccc2cc(CNC(=O)[C@H](Cc3ccc(F)c(F)c3)NC(=O)c3cccnc3N3CCOCC3)ccc12` [Example 0.45]: 10 to 40 µM.
